# Reference: paper PMC8385015, “Tumour-on-chip microfluidic platform for assessment of drug pharmacokinetics and treatment response” (Communications Biology, 2021)
# Several values for one entry are separate records, joined by “and”; a condition that tells them apart may be missing. Equal entries are not always repeated. Where two headings read alike, the source gives them in different places.
# Tests used:
# in vivo = settings: mouse
# Experimental: The samples were collected at 5, 15, 40 min, and 1, 2, 4, 6, 8 and 24 h.
# Whole blood was mixed 1:5 with PBS and centrifuged at 1500×g for 3 min at 4 °C, and the plasma was extracted and frozen at –80 °C.
# Using this PK model, a time course of free plasma concentrations of both drugs was simulated (Table 1).
# Acidified acetonitrile ([…]) was added with the internal standard, followed by centrifugation at 3000 rpm for 10 min. Supernatant ([…]) was then removed to a clean plate and dried under nitrogen. […]
# Supplementary Method 8. Pharmacokinetic models parameters used for simulations
# […] PK model and PK parameters used for simulations
# SW620 xenograft = assay type: in vivo; settings: irinotecan 50 mg/kg IP day 1 weekly + vehicle PO, single animals
# Experimental: We tested different weekly in vivo dosing schedules, previously evaluated in SW620 spheroids on the chip (Fig. 5a) using matched exposure profiles to those previously observed in mouse plasma.
# Male immunocompromised Hsd:Athymic Nude-Foxn1nu mice (Envigo) were used for xenograft tumour implantation. […] Animals were randomised into groups of 9–15 when tumours reached a volume of ~0.30 cm[3] and 4 weekly cycles of treatment commenced.
# Tumours were measured twice weekly (length × width) by bilateral Vernier calliper measurements and tumour volume calculated using Mousetrap software. Tumour growth inhibition from start of treatment was assessed by comparison of the mean change in tumour volume for the control and treated groups using the Mousetrap application and represented as TGI.
# [1] = population PK model parameter, mean
smiles,measurement,setting,value
CCc1c2c(nc3ccc(OC(=O)N4CCC(N5CCCCC5)CC4)cc13)-c1cc3c(c(=O)n1C2)COC(=O)[C@]3(O)CC [Irinotecan],Km,"in vivo; female, CB-17 SCID, in vivo",6.12 nM
same,Q/(1-F4),"in vivo; female, CB-17 SCID, in vivo",0.0574 L/h
same,FM*,in vivo; [1],0.286
same,V2/(1-F4),in vivo; [1],0.0161 L
same,V3/(1-F4),in vivo; [1],5.26 L
same,Vmax,in vivo; [1],0.0589 µM/h
same,ka,in vivo; [1],0.454 h⁻¹
same,Tumour size,SW620 xenograft; day 7 (fig 5b 01),0.6466 cm^3 and 0.9799 cm^3 and 0.6666 cm^3 and 1.05 cm^3 and 0.9864 cm^3 and 1.225 cm^3 and 0.8608 cm^3 and 0.8801 cm^3 and 0.7589 cm^3 and 0.364 cm^3 and 1.22 cm^3 and 1.71 cm^3 and 0.9487 cm^3 and 0.9159 cm^3 and 0.8306 cm^3
same,Tumour size,SW620 xenograft; day 15 (fig 5b 02),1.28 cm^3 and 1.619 cm^3 and 0.8212 cm^3 and 0.6967 cm^3 and 1.922 cm^3 and 1.901 cm^3 and 1.374 cm^3 and 0.7853 cm^3 and 2.931 cm^3
same,Tumour size,SW620 xenograft; day 35 (fig 5b 03),3.4844 cm^3 and 2.894 cm^3 and 2.205 cm^3 and 2.6873 cm^3 and 2.88 cm^3 and 1.604 cm^3 and 1.682 cm^3
